The record followed here is patent US10369130B2, “Antibacterial compounds” (AZIENDE CHIMICHE RIUNITE ANGELINI FRANCESCO A.C.R.A.F. …, priority 2014, dated 2019).

Where a name gives a salt, the structure may show the parent alone.

What all share (assay type): biochemical
Conditions in all cases: single concentration (200, 100 or 50 μM), in duplicate, versus the positive control (vehicle)

Assay [1] deals with T1, DNA gyrase (Staphylococcus aureus, UniProt P0A0K8+P20831).
T1 construct: purchased Inspiralis, UK
The experiment in a line: DNA gyrase supercoiling assay (S. aureus).

In assay [2] the target is T2, DNA gyrase (Escherichia coli, UniProt P0AES4+P0AES6).
T2 construct: purchased Inspiralis, UK
The experiment in a line: DNA gyrase supercoiling assay (E. coli).

The target in assay [3] is T3, Topoisomerase IV (Escherichia coli, UniProt P0AFI2+P20083).
T3 construct: purchased Inspiralis, UK
Description: Topoisomerase IV decatenation assay (E. coli).

Assay [4] addresses T4, Topoisomerase IV (Staphylococcus aureus, UniProt P0C1S7+P0C1U9).
T4 construct: purchased Inspiralis, UK
The experiment in a line: Topoisomerase IV decatenation assay (S. aureus).

T4 sequence (P0C1S7 whole entry): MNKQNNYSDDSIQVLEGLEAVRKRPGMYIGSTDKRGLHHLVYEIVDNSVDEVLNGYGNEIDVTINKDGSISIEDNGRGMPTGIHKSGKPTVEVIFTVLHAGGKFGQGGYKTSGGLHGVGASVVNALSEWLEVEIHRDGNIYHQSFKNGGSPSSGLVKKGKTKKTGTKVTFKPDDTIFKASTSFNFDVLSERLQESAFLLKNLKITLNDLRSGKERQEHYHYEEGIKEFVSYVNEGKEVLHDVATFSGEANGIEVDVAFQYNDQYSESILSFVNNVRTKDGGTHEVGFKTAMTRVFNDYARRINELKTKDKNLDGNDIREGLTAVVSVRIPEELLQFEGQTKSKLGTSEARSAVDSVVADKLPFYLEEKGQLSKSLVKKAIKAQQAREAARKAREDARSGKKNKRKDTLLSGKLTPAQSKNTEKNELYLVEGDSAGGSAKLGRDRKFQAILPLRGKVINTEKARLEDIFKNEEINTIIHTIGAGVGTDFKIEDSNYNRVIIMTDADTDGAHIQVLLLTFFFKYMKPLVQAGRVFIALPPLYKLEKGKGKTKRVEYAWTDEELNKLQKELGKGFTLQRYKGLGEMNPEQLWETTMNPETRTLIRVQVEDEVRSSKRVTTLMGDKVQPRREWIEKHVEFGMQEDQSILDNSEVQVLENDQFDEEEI
T4 sequence (P0C1U9 whole entry): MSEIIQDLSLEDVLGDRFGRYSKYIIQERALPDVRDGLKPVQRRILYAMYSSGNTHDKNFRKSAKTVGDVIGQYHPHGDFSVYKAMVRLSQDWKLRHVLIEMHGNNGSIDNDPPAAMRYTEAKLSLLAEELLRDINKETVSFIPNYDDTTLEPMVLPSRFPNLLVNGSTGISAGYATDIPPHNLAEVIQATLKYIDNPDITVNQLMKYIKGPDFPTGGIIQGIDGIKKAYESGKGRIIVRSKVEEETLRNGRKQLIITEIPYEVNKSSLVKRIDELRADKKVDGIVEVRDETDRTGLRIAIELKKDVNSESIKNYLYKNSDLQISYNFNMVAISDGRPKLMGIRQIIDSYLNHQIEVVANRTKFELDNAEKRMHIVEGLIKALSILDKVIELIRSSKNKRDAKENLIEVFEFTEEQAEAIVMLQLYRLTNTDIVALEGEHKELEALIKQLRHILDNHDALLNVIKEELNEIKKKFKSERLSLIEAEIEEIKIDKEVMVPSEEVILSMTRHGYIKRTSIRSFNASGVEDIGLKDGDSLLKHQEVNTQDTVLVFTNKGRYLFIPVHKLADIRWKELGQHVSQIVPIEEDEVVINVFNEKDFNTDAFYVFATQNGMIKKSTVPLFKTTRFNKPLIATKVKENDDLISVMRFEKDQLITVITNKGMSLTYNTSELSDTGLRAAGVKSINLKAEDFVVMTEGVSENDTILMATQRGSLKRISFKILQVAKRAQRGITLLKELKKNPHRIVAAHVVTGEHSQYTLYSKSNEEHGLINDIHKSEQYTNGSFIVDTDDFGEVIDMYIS
T2 sequence (P0AES4 whole entry, one chain of several): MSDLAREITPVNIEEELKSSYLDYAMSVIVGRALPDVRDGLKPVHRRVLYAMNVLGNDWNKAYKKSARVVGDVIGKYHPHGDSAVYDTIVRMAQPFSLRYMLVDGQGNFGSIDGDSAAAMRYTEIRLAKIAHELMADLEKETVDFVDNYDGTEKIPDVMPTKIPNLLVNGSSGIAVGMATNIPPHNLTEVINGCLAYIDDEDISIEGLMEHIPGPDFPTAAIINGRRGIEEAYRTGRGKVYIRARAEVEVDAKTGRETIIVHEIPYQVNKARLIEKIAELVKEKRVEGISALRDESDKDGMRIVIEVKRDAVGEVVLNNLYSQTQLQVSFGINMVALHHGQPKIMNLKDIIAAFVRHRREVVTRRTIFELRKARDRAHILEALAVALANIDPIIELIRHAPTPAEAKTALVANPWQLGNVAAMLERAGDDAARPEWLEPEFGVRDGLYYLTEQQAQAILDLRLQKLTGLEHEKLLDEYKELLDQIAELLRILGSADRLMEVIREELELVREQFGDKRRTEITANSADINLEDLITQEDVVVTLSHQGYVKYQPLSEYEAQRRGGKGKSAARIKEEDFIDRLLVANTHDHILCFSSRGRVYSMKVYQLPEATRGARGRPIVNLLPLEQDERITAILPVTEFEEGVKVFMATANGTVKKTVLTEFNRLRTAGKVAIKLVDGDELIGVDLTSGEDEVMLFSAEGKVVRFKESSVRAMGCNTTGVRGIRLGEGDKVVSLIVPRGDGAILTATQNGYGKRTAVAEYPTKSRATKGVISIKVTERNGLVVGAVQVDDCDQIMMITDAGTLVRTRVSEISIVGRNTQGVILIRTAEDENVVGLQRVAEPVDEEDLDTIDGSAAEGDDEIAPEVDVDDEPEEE
T1 sequence (P20831 whole entry): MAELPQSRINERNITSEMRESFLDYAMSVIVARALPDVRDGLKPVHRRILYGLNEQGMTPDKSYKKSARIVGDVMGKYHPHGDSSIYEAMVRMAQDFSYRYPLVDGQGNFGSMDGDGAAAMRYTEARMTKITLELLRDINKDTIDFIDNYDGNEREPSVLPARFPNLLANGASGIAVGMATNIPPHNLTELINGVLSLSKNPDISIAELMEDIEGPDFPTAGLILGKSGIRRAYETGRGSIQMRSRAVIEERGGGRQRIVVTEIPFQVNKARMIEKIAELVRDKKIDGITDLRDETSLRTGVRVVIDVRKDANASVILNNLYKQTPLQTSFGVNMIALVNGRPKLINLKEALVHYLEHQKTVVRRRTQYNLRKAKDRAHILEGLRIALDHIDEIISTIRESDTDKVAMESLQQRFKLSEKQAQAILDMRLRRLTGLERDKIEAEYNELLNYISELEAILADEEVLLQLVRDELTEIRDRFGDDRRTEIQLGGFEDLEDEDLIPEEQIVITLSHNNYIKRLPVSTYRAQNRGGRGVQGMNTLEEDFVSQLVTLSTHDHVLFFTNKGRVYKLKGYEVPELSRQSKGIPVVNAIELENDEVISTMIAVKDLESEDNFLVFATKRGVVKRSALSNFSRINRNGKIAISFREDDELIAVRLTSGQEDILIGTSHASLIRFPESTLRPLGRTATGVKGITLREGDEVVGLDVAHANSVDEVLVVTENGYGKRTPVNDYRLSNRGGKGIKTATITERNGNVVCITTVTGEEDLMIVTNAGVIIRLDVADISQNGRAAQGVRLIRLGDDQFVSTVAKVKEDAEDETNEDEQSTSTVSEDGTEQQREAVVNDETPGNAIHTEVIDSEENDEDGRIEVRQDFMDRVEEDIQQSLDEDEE
T1 sequence (P0A0K8 whole entry): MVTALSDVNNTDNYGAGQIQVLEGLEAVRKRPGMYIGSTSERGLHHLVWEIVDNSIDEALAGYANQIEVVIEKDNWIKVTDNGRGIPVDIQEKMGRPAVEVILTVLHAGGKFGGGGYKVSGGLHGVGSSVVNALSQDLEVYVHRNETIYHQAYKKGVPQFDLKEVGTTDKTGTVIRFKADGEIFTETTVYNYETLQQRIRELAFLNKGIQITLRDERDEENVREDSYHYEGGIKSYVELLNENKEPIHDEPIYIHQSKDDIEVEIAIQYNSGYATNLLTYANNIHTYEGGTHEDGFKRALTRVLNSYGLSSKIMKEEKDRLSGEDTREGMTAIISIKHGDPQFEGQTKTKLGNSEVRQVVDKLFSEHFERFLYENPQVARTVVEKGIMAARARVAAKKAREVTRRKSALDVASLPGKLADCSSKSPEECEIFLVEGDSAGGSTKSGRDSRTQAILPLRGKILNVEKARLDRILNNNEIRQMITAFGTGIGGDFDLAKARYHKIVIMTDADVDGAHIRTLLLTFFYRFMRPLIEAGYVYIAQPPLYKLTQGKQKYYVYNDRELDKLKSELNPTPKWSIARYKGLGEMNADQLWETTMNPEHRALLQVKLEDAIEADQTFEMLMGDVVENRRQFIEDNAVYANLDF

For `COc1ccc2c(NCCCN3CCN(c4nccc5ccccc45)CC3)cc(=O)oc2c1` [Compound 85, 4-({3-[4-(isoquinolin-1-yl)piperazin-1-yl]propyl}amino)-7-methoxy-2H-chromen-2-one hydrochloride], the “% inhibition DNA gyrase” value on DNA gyrase [1] was found to be 86%; on DNA gyrase [2] it was 78%. In addition, the “% inhibition Topo IV” value on Topoisomerase IV [3] and at Topoisomerase IV [4] was “n/a (n/a = not active)” throughout.

`O=c1oc2ccccc2cc1NCCCN1CCN(c2nccc3ccccc23)CC1` [Compound 87, 3-({3-[4-(isoquinolin-1-yl)piperazin-1-yl]propyl}amino)-2H-chromen-2-one hydrochloride]: the “% inhibition DNA gyrase” value on DNA gyrase [1] was found to be 96%; on DNA gyrase [2] it was 79%. The “% inhibition Topo IV” value on Topoisomerase IV [3] and on Topoisomerase IV [4] was “n/a (n/a = not active)” each time.

With `Cc1cccc2oc(=O)cc(NCCCN3CCN(c4nccc5ccc(F)cc45)CC3)c12` [Compound 96, 4-({3-[4-(7-fluoroisoquinolin-1-yl)piperazin-1-yl]propyl}amino)-5-methyl-2H-chromen-2-one hydrochloride], the “% inhibition DNA gyrase” value on DNA gyrase [1] stood at 91%; at DNA gyrase [2], 88%. Also, the “% inhibition Topo IV” value on Topoisomerase IV [3] and at Topoisomerase IV [4] was “n/a (n/a = not active)” throughout.

Turning to `Cc1c(NCCCN2CCN(c3nccc4ccc(F)cc34)CC2)c2ccccc2oc1=O` [Compound 97, 4-({3-[4-(7-fluoroisoquinolin-1-yl)piperazin-1-yl]propyl}amino)-3-methyl-2H-chromen-2-one hydrochloride], the “% inhibition DNA gyrase” value is on record as 86% on DNA gyrase [1] and 85% on DNA gyrase [2]. Besides, the “% inhibition Topo IV” value at Topoisomerase IV [3] and at Topoisomerase IV [4] was “n/a (n/a = not active)” in each case.

Take `O=c1cc(NCCCN2CCN(c3nccc4ccc(F)cc34)CC2)c2ccc(O)cc2o1` [Compound 107, 4-({3-[4-(7-fluoroisoquinolin-1-yl)piperazin-1-yl]propyl}amino)-7-hydroxy-2H-chromen-2-one hydrochloride]: the figures for the “% inhibition DNA gyrase” value at DNA gyrase [1] and on DNA gyrase [2] were 74% and 92%, respectively. In addition, the “% inhibition Topo IV” value on Topoisomerase IV [3] and at Topoisomerase IV [4] was “n/a (n/a = not active)” in each case.

Consider `O=C(CN1CCC(Nc2cc(=O)oc3ccccc23)CC1)NCc1nccc2ccccc12` [Compound 118, N-(isoquinolin-1-ylmethyl)-2-{4-[(2-oxo-2H-chromen-4-yl)amino]piperidin-1-yl}acetamide], for which the “% inhibition DNA gyrase” value at DNA gyrase [1] is “n/a (n/a = not active)”; on DNA gyrase [2], 78%. Also, the “% inhibition Topo IV” value at Topoisomerase IV [3] and on Topoisomerase IV [4] was “n/a (n/a = not active)” each time.

Turning to `O=c1cc(NCCCN2CCN(c3nccc4ccc(F)cc34)CC2)c2c(o1)CCNC2` [Compound 122, 4-({3-[4-(7-fluoroisoquinolin-1-yl)piperazin-1-yl]propyl}amino)-5,6,7,8-tetrahydro-2H-pyrano[3,2-c]pyridin-2-one hydrochloride], the “% inhibition DNA gyrase” value on DNA gyrase [1] was “n/a (n/a = not active)”; at DNA gyrase [2], 58%. For the same compound, the “% inhibition Topo IV” value on Topoisomerase IV [3] and on Topoisomerase IV [4] was “n/a (n/a = not active)” throughout.

With `C[N+]1(CCCc2nccc3ccccc23)CCC(Nc2cc(=O)oc3ccccc23)CC1` (centres unmarked) [Compound 123], the “% inhibition DNA gyrase” value on DNA gyrase [1] is “n/a (n/a = not active)”; on DNA gyrase [2], 52%. Besides, the “% inhibition Topo IV” value on Topoisomerase IV [3] and on Topoisomerase IV [4] was “n/a (n/a = not active)” throughout.

Consider `O=C(O)C[C@@H](NC[C@@H](O)CN1CCN(c2nccc3ccc(F)cc23)CC1)c1ccccc1` [Compound 141, (3R)-3-({(2R)-3-[4-(7-fluoroisoquinolin-1-yl)piperazin-1-yl]-2-hydroxypropyl}amino)-3-phenylpropanoic acid], for which the entries for the “% inhibition DNA gyrase” value at DNA gyrase [1] and at DNA gyrase [2] were 65% and “n/a (n/a = not active)”, respectively. For the same compound, the “% inhibition Topo IV” value at Topoisomerase IV [3] and at Topoisomerase IV [4] was “n/a (n/a = not active)” in each case.

Regarding `O=C(O)C[C@@H](NC[C@H](O)CN1CCN(c2nccc3ccc(F)cc23)CC1)c1ccccc1` [Compound 142, (3R)-3-({(2S)-3-[4-(7-fluoroisoquinolin-1-yl)piperazin-1-yl]-2-hydroxypropyl}amino)-3-phenylpropanoic acid], the “% inhibition DNA gyrase” value on DNA gyrase [1] is 52%; on DNA gyrase [2], “n/a (n/a = not active)”. Besides, the “% inhibition Topo IV” value on Topoisomerase IV [3] and on Topoisomerase IV [4] was “n/a (n/a = not active)” in each case.

On to `O=C(O)CC(NCCNC1CCN(c2nccc3ccc(F)cc23)CC1)C1CCCCC1` (centres unmarked) [Compound 190, lithium 3-cyclohexyl-3-[(2-{[1-(7-fluoroisoquinolin-1-yl)piperidin-4-yl]amino}ethyl)amino]propanoate], for which the “% inhibition DNA gyrase” value at DNA gyrase [1] came out at 73%; at DNA gyrase [2] it was 61%. Besides, the “% inhibition Topo IV” value on Topoisomerase IV [3] and at Topoisomerase IV [4] was “n/a (n/a = not active)” throughout.
